Earlier results as cited in patent publication US20220372506A1, “CYP81E GENES […] TOLERANCE” (Colorado State University Research Foundation, priority 2020, published 2022).
“Also recorded” adds a separate entry of the source.

Legend:
[1] = tested on: A. tuberculatus CHR population; conditions: CHR population compared to WUS; for level of resistance (dose response): Evans et al. 2019
[2] = tested on: A. tuberculatus NEB population
[3] = tested on: A. tuberculatus NEB population; conditions: malathion pre-treatment before 2,4-D, Figueiredo et al. 2018

O=C(O)COc1ccc(Cl)cc1Cl [2,4-D, 2,4-dichlorophenoxyacetic acid]
level of resistance (dose response) [1]: 9 fold | level of 2,4-D resistance ([2]; NEB population compared to the Nebraska 2,4-D sensitive population, Bernards et al. 2012): 10 fold

CCOC(=O)CC(SP(=S)(OC)OC)C(=O)OCC (stereo not drawn) [malathion]
effect of pre-treatment on 2,4-D resistance phenotype [3]: reverted to sensitivity; also recorded: reversed the resistance phenotype

CS(=O)(=O)c1ccc(C(=O)C2C(=O)CCCC2=O)c([N+](=O)[O-])c1 [mesotrione]
level of resistance (dose response) [1]: ~15 fold

CS(=O)(=O)c1ccc(C(=O)C2C(=O)CCCC2=O)c(Cl)c1COCC(F)(F)F [tembotrione]
resistance to tembotrione ([1]; Murphy and Tranel, 2019): 43 fold | resistance to tembotrione ([2]; NEB population compared to WUS, Murphy and Tranel, 2019): 15 fold
